Assays:
[1] = system: Glomerella lagenarium (Colletotrichum lagenarium); assay: Glomerella lagenarium (Colletotrichum lagenarium) / liquid culture (anthracnose); assay type: cell-based; conditions: Colletotrichum orbiculare; read-out: control of Glomerella lagenarium
[2] = system: Botryotinia fuckeliana (Botrytis cinerea); assay: Botryotinia fuckeliana (Botrytis cinerea) / liquid culture (gray mould); assay type: cell-based; conditions: 72 h, read-out: control of Botryotinia fuckeliana
Fusarium culmorum [3] = assay: whole plant or invertebrate; assay type: in vivo; conditions: in Triticum aestivum, read-out: control of Fusarium culmorum
Gaeumannomyces graminis = Gaeumannomyces graminis / liquid culture (take-all of cereals); assay type: cell-based; conditions: read-out: control of Gaeumannomyces graminis
Fusarium culmorum [4] = assay: microbe, parasite or virus in culture; assay type: cell-based; conditions: read-out: control of Fusarium culmorum
[5] = system: Monographella nivalis (Microdochium nivale); assay: Monographella nivalis (Microdochium nivale) / liquid culture (foot rot cereals); assay type: cell-based; conditions: 96 h, read-out: control of Monographella nivalis
[6] = system: Magnaporthe grisea (Pyricularia oryzae); assay: microbe, parasite or virus in culture; assay type: cell-based; conditions: 72 h, read-out: control of Magnaporthe grisea
Sclerotinia sclerotiorum = Sclerotinia sclerotiorum / liquid culture (cottony rot); conditions: 72 h, read-out: control of Sclerotinia sclerotiorum
Procedure: Sclerotinia sclerotiorum/Liquid Culture (Cottony Rot)
Mycelia fragments of a newly grown liquid culture of the fungus are directly mixed into nutrient broth (Vogels broth). After placing a (DMSO) solution of test compound into a microtiter plate (96-well format) the nutrient broth containing the fungal material is added. The test plates are incubated at 24° C. and the inhibition of growth is determined photometrically 3-4 days after application.

[7] = system: Mycosphaerella graminicola (Septoria tritici); assay: Mycosphaerella graminicola (Septoria tritici) / liquid culture (Septoria blotch); assay type: cell-based; conditions: Zymoseptoria tritici; read-out: control of Mycosphaerella graminicola

Row | Structure (SMILES) | melting point | inhibition of growth at 200 ppm [1] | inhibition of growth at 200 ppm [2] | pest or weed control at 200 ppm (Fusarium culmorum [3]) | inhibition of growth at 200 ppm (Gaeumannomyces graminis) | inhibition of growth at 200 ppm (Fusarium culmorum [4]) | inhibition of growth at 200 ppm [5] | inhibition of growth at 200 ppm [6] | inhibition of growth at 20 ppm (Sclerotinia sclerotiorum) | inhibition of growth at 200 ppm [7]
1 | CC(C)CC(C)(Cc1ccccc1)NC(=O)c1cnc2c(F)c(F)ccc2c1 (stereo not drawn) [Compound E-48, N-(1-benzyl-1,3-dimethyl-butyl)-7,8-difluoro-quinoline-3-carboxamide] | 114 to 116 °C | ≥ 80% | ≥ 80% | ≥ 80% | ≥ 80% | ≥ 80% | ≥ 80% | ≥ 80% |  | 
2 | CC(C)(C)CC(C)(Cc1ccccc1)NC(=O)c1cnc2c(F)cccc2c1 (stereo not drawn) [Compound E-34, N-(1-benzyl-1,3,3-trimethyl-butyl)-8-fluoro-quinoline-3-carboxamide] | 48 to 50 °C | ≥ 80% | ≥ 80% |  |  | ≥ 80% | ≥ 80% | ≥ 80% | ≥ 80% | 
3 | CC(C)CC(C)(Cc1ccccc1)NC(=O)c1cnc2c(Cl)cccc2c1 (stereo not drawn) [Compound E-14, N-(1-benzyl-1,3-dimethyl-butyl)-8-chloro-quinoline-3-carboxamide] | 147 to 148 °C | ≥ 80% | ≥ 80% |  | ≥ 80% | ≥ 80% | ≥ 80% | ≥ 80% | ≥ 80% | 
4 | CC(Cc1ccccc1)(CC(F)(F)F)NC(=O)c1cnc2c(F)cccc2c1 (stereo not drawn) [Compound E-39, N-(1-benzyl-3,3,3-trifluoro-1-methyl-propyl)-8-fluoro-quinoline-3-carboxamide] | 158 to 160 °C | ≥ 80% | ≥ 80% | ≥ 80% | ≥ 80% | ≥ 80% |  | ≥ 80% | ≥ 80% | 
5 | CC(C)CC(C)(Cc1ccc(Cl)cc1)NC(=O)c1cnc2c(F)cccc2c1 (stereo not drawn) [Compound E-25] | 57 to 59 °C | ≥ 80% | ≥ 80% | ≥ 80% | ≥ 80% | ≥ 80% |  | ≥ 80% | ≥ 80% | 
6 | CC(C)CC(C)(Cc1ccccc1)NC(=S)c1cnc2c(F)cccc2c1 (stereo not drawn) [Compound E-114, N-(1-benzyl-1,3-dimethyl-butyl)-8-fluoro-quinoline-3-carbothioamide] | 150 to 153 °C | ≥ 80% | ≥ 80% | ≥ 80% |  | ≥ 80% | ≥ 80% | ≥ 80% | ≥ 80% | 
7 | CC(C)(C)CC(Cc1ccccc1)NC(=O)c1cnc2c(F)cccc2c1 (stereo not drawn) [Compound E-28, N-(1-benzyl-3,3-dimethyl-butyl)-8-fluoro-quinoline-3-carboxamide] | 178 to 180 °C | ≥ 80% | ≥ 80% | ≥ 80% | ≥ 80% | ≥ 80% | ≥ 80% | ≥ 80% | ≥ 80% | 
8 | C=C(C)CC(C)(Cc1ccccc1)NC(=O)c1cnc2ccccc2c1 (stereo not drawn) [Compound E-36, N-(1-benzyl-1,3-dimethyl-but-3-enyl)quinoline-3-carboxamide] | 99 to 103 °C | ≥ 80% | ≥ 80% | ≥ 80% |  | ≥ 80% | ≥ 80% | ≥ 80% | ≥ 80% | 
9 | CC(F)(F)C[C@@](C)(Cc1ccccc1)NC(=O)c1cnc2ccccc2c1 [Compound F-26, N-[(1R)-1-benzyl-3,3-difluoro-1-methyl-butyl]quinoline-3-carboxamide] |  | ≥ 80% | ≥ 80% | ≥ 80% |  | ≥ 80% | ≥ 80% |  |  | ≥ 80%
10 | Cc1cccc2cc(C(=O)NC(C)(Cc3ccccc3)CC(C)C)cnc12 (stereo not drawn) [Compound E-20, N-(1-benzyl-1,3-dimethyl-butyl)-8-methyl-quinoline-3-carboxamide] | 132 to 133 °C | ≥ 80% | ≥ 80% | ≥ 80% | ≥ 80% | ≥ 80% | ≥ 80% | ≥ 80% | ≥ 80% | 
11 | CC(C)CC(Cc1ccccc1)NC(=O)c1cnc2c(F)cccc2c1 (stereo not drawn) [Compound E-29, N-(1-benzyl-3-methyl-butyl)-8-fluoro-quinoline-3-carboxamide] | 136 to 139 °C | ≥ 80% | ≥ 80% | ≥ 80% |  | ≥ 80% |  | ≥ 80% | ≥ 80% | 
12 | C=C(C)CC(C)(Cc1ccccc1)NC(=O)c1cnc2c(F)cccc2c1 (stereo not drawn) [Compound E-35, N-(1-benzyl-1,3-dimethyl-but-3-enyl)-8-fluoro-quinoline-3-carboxamide] | 115 to 117 °C | ≥ 80% | ≥ 80% | ≥ 80% | ≥ 80% | ≥ 80% | ≥ 80% | ≥ 80% | ≥ 80% | 
13 | C=C(C)C[C@](C)(Cc1ccccc1)NC(=O)c1cnc2c(F)cccc2c1 [Compound F-10, N-[(1R)-1-benzyl-1,3-dimethyl-but-3-enyl]-8-fluoro-quinoline-3-carboxamide] |  | ≥ 80% | ≥ 80% | ≥ 80% | ≥ 80% | ≥ 80% | ≥ 80% |  | ≥ 80% | 
14 | Cc1c(C(=O)NC(C)(Cc2ccccc2)CC(C)C)cnc2c(F)cccc12 (stereo not drawn) [Compound E-15, N-(1-benzyl-1,3-dimethyl-butyl)-8-fluoro-4-methyl-quinoline-3-carboxamide] | 92 to 94 °C | ≥ 80% | ≥ 80% | ≥ 80% |  | ≥ 80% |  | ≥ 80% | ≥ 80% | 
15 | CC(C)CC(C)(Cc1ccccc1Cl)NC(=O)c1cnc2c(F)cccc2c1 (stereo not drawn) [Compound E-22, N-[1-[(2-chlorophenyl)methyl]-1,3-dimethyl-butyl]-8-fluoro-quinoline-3-carboxamide] | 109 to 110 °C | ≥ 80% | ≥ 80% | ≥ 80% | ≥ 80% | ≥ 80% | ≥ 80% | ≥ 80% |  | 
16 | CC1(CC(C)(Cc2ccccc2)NC(=O)c2cnc3c(F)cccc3c2)CC1 (stereo not drawn) [Compound E-47, N-[1-benzyl-1-methyl-2-(1-methylcyclopropyl)ethyl]-8-fluoro-quinoline-3-carboxamide] | 126 to 129 °C | ≥ 80% | ≥ 80% |  | ≥ 80% | ≥ 80% |  | ≥ 80% | ≥ 80% | 
17 | CC(C)CC(C)(Cc1ccc(F)cc1)NC(=O)c1cnc2c(F)cccc2c1 (stereo not drawn) [Compound E-24, 8-fluoro-N-[1-[(4-fluorophenyl)methyl]-1,3-dimethyl-butyl]quinoline-3-carboxamide] | 38 to 39 °C | ≥ 80% | ≥ 80% | ≥ 80% | ≥ 80% | ≥ 80% | ≥ 80% | ≥ 80% | ≥ 80% | 
18 | CC(C)CC(C)(Cc1cccc(F)c1)NC(=O)c1cnc2c(F)cccc2c1 (stereo not drawn) [Compound E-26, 8-fluoro-N-[1-[(3-fluorophenyl)methyl]-1,3-dimethyl-butyl]quinoline-3-carboxamide] | 45 to 47 °C | ≥ 80% | ≥ 80% | ≥ 80% | ≥ 80% | ≥ 80% | ≥ 80% | ≥ 80% | ≥ 80% | 
19 | CC(C)C[C@](C)(Cc1ccccc1)NC(=O)c1cnc2c(F)cccc2c1 [Compound F-1, N-[(1R)-1-benzyl-1,3-dimethyl-butyl]-8-fluoro-quinoline-3-carboxamide] |  | ≥ 80% | ≥ 80% | ≥ 80% | ≥ 80% | ≥ 80% | ≥ 80% | ≥ 80% | ≥ 80% | 

— US10477864B2, “Microbiocidal quinoline (thio)carboxamide derivatives” (priority 2016, dated 2019)
